According to patent publication US6187802A, “Substituted 4-arylmethylene-2-imino-2,3-dihydrothiazoles and derivatives and their pharmaceutical use” (Knoll Aktiengesellschaft, priority 1997, dated 2001):
Counter-ions that a name gives are not always drawn.

Tests used:
[1] = biological target: T1, 5-hydroxytryptamine (5-HT) reuptake sites (Rattus norvegicus, UniProt P31652); assay: displacement of [3H]paroxetine from 5-HT reuptake sites, frontal cortical membranes; format: binding; details: 10^-6 M test compound, [3H]paroxetine 30 pM, one test only, read-out: 5-HT uptake (% displacement of specific binding of tritiated ligand)
T1 construct: Frontal cortical tissue from the brains of male Sprague-Dawley rats; from tissue; host or cells: rat brain frontal cortex (crude synaptosomes in A2, washed membranes in A5)
T1 sequence (P31652 whole entry): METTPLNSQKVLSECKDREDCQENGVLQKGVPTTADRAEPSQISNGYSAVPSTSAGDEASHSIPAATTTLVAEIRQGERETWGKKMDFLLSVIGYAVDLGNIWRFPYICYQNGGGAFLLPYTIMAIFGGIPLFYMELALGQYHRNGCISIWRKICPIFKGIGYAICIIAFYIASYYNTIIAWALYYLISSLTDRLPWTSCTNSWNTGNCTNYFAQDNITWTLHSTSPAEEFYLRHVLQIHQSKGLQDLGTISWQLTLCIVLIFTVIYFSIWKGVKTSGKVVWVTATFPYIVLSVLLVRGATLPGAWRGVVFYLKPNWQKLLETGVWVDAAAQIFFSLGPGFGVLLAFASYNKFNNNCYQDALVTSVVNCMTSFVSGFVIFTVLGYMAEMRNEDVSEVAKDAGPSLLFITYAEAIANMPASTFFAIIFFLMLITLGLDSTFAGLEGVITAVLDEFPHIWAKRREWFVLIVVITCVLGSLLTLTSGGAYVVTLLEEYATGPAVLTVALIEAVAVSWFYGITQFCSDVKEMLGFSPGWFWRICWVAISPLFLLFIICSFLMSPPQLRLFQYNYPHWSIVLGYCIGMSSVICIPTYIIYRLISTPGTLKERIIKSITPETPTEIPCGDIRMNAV
Description: Frontal cortical tissue from the brains of male Charles River rats weighing 150-250 g was homogenised in ice-cold 0.25M sucrose (1:30 w/v) using a Kinematic polytron (speed setting 6 for 30 seconds) and centrifuged at 1000 g for 12 minutes. The supernatant was stored on ice and the pellet was resuspended in 0.25M sucrose (1:20 w/v) and centrifuged at 850 g for 10 minutes. Combined supernatants were diluted to 1:100 w/v with ice-cold 50 mM Tris-HCl, pH 7.5 (at 25° C.) containing 120 mM sodium chloride and 5 mM potassium chloride (Tris buffer) and centrifuged at 40,000 g for 10 minutes. The resulting pellet was resuspended in 50 mM Tris buffer (1:100 w/v) and recentrifuged at 40,000 g for 10 minutes. The final pellet was resuspended in 50 mM Tris buffer (equivalent to 2 mg wet weight of tissue/ml) and used immediately in the binding assay. All centrifugations were carried out at 4° C.
Membranes (1000 μl; equivalent to 2 mg wet weight of tissue/tube) were incubated with 200 μl [^3 H]paroxetine at a single concentration of 30 pM and 200 μl of distilled water (total binding) or 200 μl of test compound (10^-6 M) or 200 μl of citalopram (1 μM; non-specific binding) for 2 h at 22° C.
Membrane bound radioactivity was recovered by filtration under vacuum through Whatman GFIC filters using a Brandel cell harvester. Filters were rapidly washed with 16 ml ice-cold 50 mM Tris buffer and radioactivity determined by liquid scintillation counting (2 ml Packard MV Gold scintillator).
(§1) For each of these tests measuring the ability of compounds of Formula I to displace standard ligands from dopamine (DA), 5-hydroxytryptamine (5-HT) and noradrenaline (NA) reuptake sites in vitro, the percentage displacement of specific binding of tritiated ligand by 10^-6 M test compound was calculated in the following way:
(§2) Firstly, specific binding of tritiated ligand in the absence (A) and presence (B) of test compound was determined:
(§3) In the absence of compound:
(§4) A (dpm)=Total binding (dpm)-Non-specific binding (dpm)
(§5) In the presence of compound (10^-6 M):
(§6) B (dpm)=Binding at 10^-6 M (dpm)-Non-specific binding (dpm)
(§7) The specific binding of tritiated ligand in the presence (B) of compound was then converted to a percentage of specific binding of tritiated ligand in the absence (A) of compound:
(§8) % Specific binding at 10^-6 M=B (dpm)/A(dpm)×100
(§9) The percentage displacement of specific binding of trtiated ligand by the test compound (10^-6 M) was then obtained by subtraction of the percentage specific binding in the presence of compound from the percentage specific binding in the absence of compound, which is taken as the maximum binding and so equals 100%:
(§10) % Displacement at 10^-6 M=100-% Specific binding at 10^-6 M.
(§11) The values given below in Table 2 for examples 6 to 76 are % displacement of specific binding of tritiated ligand by 10^-6 M test compound and represent results from one test only. IA refers to <50% displacement.

[2] = biological target: T2, dopamine (DA) reuptake sites (Rattus norvegicus, UniProt P23977); assay: displacement of [3H]GBR 12935 from dopamine reuptake sites, striatal membranes; format: binding; details: 10^-6 M test compound, [3H]GBR 12935 1 nM, one test only, read-out: DA uptake (% displacement of specific binding of tritiated ligand)
T2 construct: Striatal tissue from the brains of male Charles River rats weighing 150-250 g; from tissue; host or cells: rat brain striatum (crude synaptosomes in A1, washed membranes in A4)
T2 sequence (P23977 whole entry): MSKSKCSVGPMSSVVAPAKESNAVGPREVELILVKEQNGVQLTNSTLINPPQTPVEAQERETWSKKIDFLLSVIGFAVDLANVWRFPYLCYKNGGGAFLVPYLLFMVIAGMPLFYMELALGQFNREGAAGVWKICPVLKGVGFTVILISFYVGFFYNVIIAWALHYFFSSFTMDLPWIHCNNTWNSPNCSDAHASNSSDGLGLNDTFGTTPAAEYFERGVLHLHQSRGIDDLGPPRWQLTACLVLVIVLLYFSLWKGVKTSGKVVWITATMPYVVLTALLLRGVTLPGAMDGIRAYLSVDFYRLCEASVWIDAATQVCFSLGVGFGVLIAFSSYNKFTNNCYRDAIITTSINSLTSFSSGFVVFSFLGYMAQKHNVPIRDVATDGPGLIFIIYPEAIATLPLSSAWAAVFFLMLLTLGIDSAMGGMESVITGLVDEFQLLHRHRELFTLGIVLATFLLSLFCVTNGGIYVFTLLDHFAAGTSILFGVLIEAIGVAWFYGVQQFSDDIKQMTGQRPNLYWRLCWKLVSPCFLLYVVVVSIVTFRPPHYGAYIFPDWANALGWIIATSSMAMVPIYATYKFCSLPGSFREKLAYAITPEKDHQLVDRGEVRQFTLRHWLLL
Description: Striatal tissue from the brains of male Charles River rats weighing 150-250 g was homogenised in ice-cold 0.32M sucrose (1:80 w/v) using a motor driven teflon pestle (12 strokes, 800 rpm) and centrifuged at 1000 g for 12 minutes. The supernatant was stored on ice and the pellet was resuspended in 0.32M sucrose (1:80 w/v) and centrifuged at 850 g for 10 minutes. Combined supernatants were diluted to 1:320 w/v with ice-cold 50 mM Tris-HCl, pH 7.4 (at 25° C.) containing 200 mM sodium chloride and 5 mM potassium chloride (Tris buffer) and centrifuged at 40,000 g for 10 minutes. The resulting pellet was resuspended in 10 ml of 50 mM Tris buffer, incubated at 37° C. for 10 min, diluted in 50 mM Tris buffer (1:320 w/v) and recentrifuged at 40,000 g for 10 minutes. The final pellet was resuspended in 50 mM Tris buffer (equivalent to 1.25 mg wet weight of tissue/ml) and used immediately in the binding assay. All centrifugations were carried out at 4° C.
Membranes (800 μl; equivalent to 1 mg wet weight of tissue/tube) were incubated with 100 μl [^3 H]GBR 12935 at a single concentration of 1 nM and 100 μl of distilled water (total binding) or 100 μl of test compound (10^-6 M) or 100 μl of mazindol (1 μM; non-specific binding) for 90 min at 4° C.
Membrane bound radioactivity was recovered by filtration under vacuum through Whatman GF/C filters, pre-soaked for 1 h in 0.5% polyethylenimine,using a Brandel cell harvester. Filters were rapidly washed with 16 ml of ice-cold 50 mM Tris-HCl, pH 7.4 and radioactivity determined by liquid scintillation counting (2 ml Packard MV Gold scintillator).
as §1, §2, §3, §4, §5, §6, §7, §8, §9, §10, §11

[3] = biological target: T3, noradrenaline (NA) reuptake sites (Rattus norvegicus, UniProt Q63380); assay: displacement of [3H]nisoxetine from noradrenaline reuptake sites, frontal cortical membranes; details: 10^-6 M test compound, [3H]nisoxetine 0.6 nM, one test only, read-out: NA uptake (% displacement of specific binding of tritiated ligand)
T3 construct: Frontal cortical tissue from the brains of male Sprague-Dawley rats; from tissue; host or cells: rat brain frontal cortex (crude synaptosomes in A3, washed membranes in A6)
T3 sequence (Q63380 1-617): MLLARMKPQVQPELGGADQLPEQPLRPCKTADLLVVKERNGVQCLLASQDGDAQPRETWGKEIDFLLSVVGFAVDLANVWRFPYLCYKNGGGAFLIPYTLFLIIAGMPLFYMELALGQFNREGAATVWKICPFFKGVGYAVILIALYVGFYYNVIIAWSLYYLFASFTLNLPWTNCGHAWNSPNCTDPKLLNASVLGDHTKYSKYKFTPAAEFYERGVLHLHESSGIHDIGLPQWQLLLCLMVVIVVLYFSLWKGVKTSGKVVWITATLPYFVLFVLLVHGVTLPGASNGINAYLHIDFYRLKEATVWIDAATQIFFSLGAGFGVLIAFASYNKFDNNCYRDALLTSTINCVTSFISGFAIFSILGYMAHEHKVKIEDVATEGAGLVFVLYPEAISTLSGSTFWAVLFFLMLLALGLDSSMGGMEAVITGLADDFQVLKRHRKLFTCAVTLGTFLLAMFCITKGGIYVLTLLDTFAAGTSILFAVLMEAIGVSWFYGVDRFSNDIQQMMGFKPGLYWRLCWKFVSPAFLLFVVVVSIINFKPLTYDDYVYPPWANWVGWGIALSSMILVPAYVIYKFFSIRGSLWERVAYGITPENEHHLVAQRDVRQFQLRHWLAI
Description: Frontal cortical tissue from the brains of male Charles River rats weighing 150-250 g was homogenised in ice-cold 50 mM Tris-HCl, pH 7.4 (at 25° C.) containing 120 mM sodium chloride and 5 mM potassium chloride (Tris buffer; 1:60 w/v) using a Kinematic polytron (speed setting 6 for 30 seconds) and centrifuged at 40,000 g for 10 minutes. The supernatant was discarded and the pellet rehomogenised in Tris buffer, 1:60 w/v, and centrifuged at 40,000 g for 10 minutes. This step was repeated twice more so that, in total, the brain tissue was homogenised and centrifuged four times. The final pellet was resuspended in 50 mM Tris-HCl, pH 7.4 containing 300 mM sodium chloride and 5 mM potassium chloride (equivalent to 25 mg wet weight of tissue/ml) and used immediately in the binding assay. All centrifugations were performed at 4° C.
Membranes (400 μl; equivalent to 10 mg wet weight of tissue/tube) were incubated with 50 μl [^3 H]nisoxetine at a single concentration of 0.6 nM and 50 μl of distilled water (total binding) or 50 μl of test compound (10^-6 M) or 50 μl of mazindol (1 μM; non-specific binding) for 4 h at 4° C.
Membrane bound radioactivity was recovered by filtration under vacuum through Skatron 11734 filters using a Skatron cell harvester. Filters were rapidly washed with ice-cold 50 mM Tris-HCl, pH 7.4 containing 120 mM sodium chloride and 5 mM potassium chloride (wash setting 9,9,0) and radioactivity determined by liquid scintillation counting (1 ml Packard MV Gold scintillator).
as §1, §2, §3, §4, §5, §6, §7, §8, §9, §10, §11

Q: For `CCCCN=c1scc(C2(c3ccc(Oc4ccccc4)cc3)CCC2)n1CCCC` [Example 59, 3-Butyl-2-butylimino-4-[1-(4-phenoxyphenyl)cyclobutyl]-2,3-dihydrothiazole hydrobromide], which inhibition at 1 µM [1] is on record?
A: The inhibition at 1 µM was under 50%.

Q: And the inhibition at 1 µM [2]?
A: The inhibition at 1 µM was 73%.

Q: What about the inhibition at 1 µM [3] of the same compound?
A: Its inhibition at 1 µM is under 50%.

Q: What does the source list for `Clc1ccc(C2(c3csc(=NCc4ccco4)n3Cc3ccco3)CCC2)cc1Cl` [Example 26, 4-[1-(3,4-Dichlorophenyl)cyclobutyl]-3-furfuryl-2-furfurylimino-2,3-dihydrothiazole hydrobromide]?
A: inhibition at 1 µM [1]: 92%; inhibition at 1 µM [2]: 116%; inhibition at 1 µM [3]: < 50%

Q: What does the source list for `C1=C(C2(c3cc4ccccc4s3)CCC2)N2CCN=C2S1` [Example 12, 3-[1-(benzo[b]thiophen-2-yl)cyclobutyl]-5,6-dihydroimidazo[2,1-b]thiazole hydrobromide]?
A: inhibition at 1 µM [1]: 77%; inhibition at 1 µM [2]: 121%; inhibition at 1 µM [3]: 95%

Q: With `COc1ccc(CCN=c2scc(C3(c4ccc(Cl)cc4)CCC3)n2CCc2ccc(OC)c(OC)c2)cc1OC` [Example 65, 4-[1-(4-Chlorophenyl)cyclobutyl]-3-(3,4-dimethoxyphenethyl)-2-(3,4-dimethoxyphenethylimino)-2,3dihydrothiazole hydrobromide] as the compound, how does the inhibition at 1 µM [1] read?
A: Its inhibition at 1 µM is under 50%.

Q: What about the inhibition at 1 µM [2] of the same compound?
A: Its inhibition at 1 µM is 54%.

Q: And the inhibition at 1 µM [3]?
A: Its inhibition at 1 µM is under 50%.

Q: For `COc1ccc(CCN=c2scc(C3(c4ccc(Cl)cc4)CCCC3)n2CCc2ccc(OC)c(OC)c2)cc1OC` [Example 67, 4-[1-(4-Chlorophenyl)cyclopentyl]-3-(3,4-dimethoxyphenethyl)-2-(3,4-dimethoxyphenethylimino)-2,3-dihydrothiazole hydrobromide], which inhibition at 1 µM [1] is on record?
A: Its inhibition at 1 µM is under 50%.

Q: What about the inhibition at 1 µM [2] of the same compound?
A: The inhibition at 1 µM was 88%.

Q: And the inhibition at 1 µM [3]?
A: The inhibition at 1 µM was under 50%.

Q: What does the source list for `Cc1ccccc1N=c1scc(C2(c3ccc4ccccc4c3)CCC2)n1-c1ccccc1C` [Example 51, 4-[1-(2-Naphthyl)cyclobutyl)-3-(o-tolyl)-2-(o-tolylimino)-2,3-dihydrothiazole hydrobromide]?
A: inhibition at 1 µM [1]: 54%; inhibition at 1 µM [2]: 69%; inhibition at 1 µM [3]: < 50%

Q: For `CCOc1ccc(N=c2scc(C3(c4ccc5ccccc5c4)CCC3)n2-c2ccc(OCC)cc2)cc1` [Example 54, 3-(4-Ethoxyphenyl)-2-(4-ethoxyphenylimino)-4-[1-(2-naphthyl)cyclobutyl]-2,3-dihydrothiazole hydrobromide], which inhibition at 1 µM [1] is on record?
A: The inhibition at 1 µM was under 50%.

Q: And the inhibition at 1 µM [2]?
A: The inhibition at 1 µM was 69%.

Q: What about the inhibition at 1 µM [3] of the same compound?
A: Its inhibition at 1 µM is under 50%.

Q: For `CCCCN=c1scc(C(C)(C)c2ccc(Cl)c(Cl)c2)n1CCCC` [Example 63, 3-Butyl-2-butylimino-4-[1-(3,4-dichlorophenyl)-1-methylethyl]-2,3-dihydrothiazole hydrobromide], which inhibition at 1 µM [1] is on record?
A: Its inhibition at 1 µM is 52%.

Q: What about the inhibition at 1 µM [2] of the same compound?
A: Its inhibition at 1 µM is 107%.

Q: What about the inhibition at 1 µM [3] of the same compound?
A: Its inhibition at 1 µM is under 50%.

Q: What does the source list for `FC(F)(F)c1cccc(N=c2scc(C3(c4ccc(Cl)c(Cl)c4)CCC3)n2-c2cccc(C(F)(F)F)c2)c1` [Example 30, 4-[1-(3,4-Dichlorophenyl)cyclobutyl]-3-(3-trifluoromethylphenyl)-2-(3-trifluoromethylphenylimino)-2,3-dihydrothiazole hydrobromide]?
A: inhibition at 1 µM [1]: < 50%; inhibition at 1 µM [2]: 79%; inhibition at 1 µM [3]: < 50%

Q: What does the source list for `CN=c1scc(C2(c3ccc4ccccc4c3)CCC2)n1C` [Example 36, 3-Methyl-2-methylimino-4-[1-(2-naphthyl)cyclobutyl]-2,3-dihydrothiazole hydrobromide]?
A: inhibition at 1 µM [1]: 101%; inhibition at 1 µM [2]: 108%; inhibition at 1 µM [3]: 101%

Q: Which results are given for `COc1ccc(CCN=c2scc(C3(c4ccccc4)CCCCC3)n2CCc2ccc(OC)c(OC)c2)cc1OC` [Example 68, 3-(3,4-Dimethoxyphenethyl)-2-(3,4-dimethoxyphenethylimino)-4-(1-phenylcyclohexyl)-2,3-dihydrothiazole hydrobromide]?
A: inhibition at 1 µM [1]: < 50%; inhibition at 1 µM [2]: 65%; inhibition at 1 µM [3]: < 50%

Q: Which results are given for `CC(C)CN=c1scc(C2(c3ccc(Cl)c(Cl)c3)CCC2)n1CC(C)C` [Example 19, 4-[1-(3,4-Dichlorophenyl)cyclobutyl]-3-isobutyl-2-isobutylimino-2,3-dihydrothiazole hydrobromide]?
A: inhibition at 1 µM [1]: 89%; inhibition at 1 µM [2]: 107%; inhibition at 1 µM [3]: < 50%

Q: How did the inhibition at 1 µM [1] turn out when `Cc1ccc(N=c2scc(C3(c4ccc(Cl)c(Cl)c4)CCC3)n2-c2ccc(C)cc2C)c(C)c1` [Example 31, 4-[1-(3,4-Dichlorophenyl)cyclobutyl]-3-(2,4-xylyl)-2-(2,4-xylylimino)-2,3-dihydrothiazole hydrobromide] was run?
A: Its inhibition at 1 µM is under 50%.

Q: And the inhibition at 1 µM [2]?
A: Its inhibition at 1 µM is 63%.

Q: What about the inhibition at 1 µM [3] of the same compound?
A: Its inhibition at 1 µM is under 50%.

Q: What does the source list for `Clc1ccc(C2(C3=CSC4=NCCN34)CCCC2)cc1` [Example 71, 3-[1-(4-Chlorophenyl)cyclopentyl]-5,6-dihydroimidazo[2,1-b]thiazole hydrobromide]?
A: inhibition at 1 µM [1]: < 50%; inhibition at 1 µM [2]: 96%; inhibition at 1 µM [3]: 76%

Q: With `CCCCN=c1scc(C2(c3ccc(SC)cc3)CCC2)n1CCCC` [Example 58, 3-Butyl-2-butylimino-4-[1-(4-methylthiophenyl)cyclobutyl]-2,3-dihydrothiazole hydrobromide] as the compound, how does the inhibition at 1 µM [1] read?
A: Its inhibition at 1 µM is under 50%.

Q: What about the inhibition at 1 µM [2] of the same compound?
A: The inhibition at 1 µM was 92%.

Q: What about the inhibition at 1 µM [3] of the same compound?
A: Its inhibition at 1 µM is under 50%.
